Patent US11334695B2, “Antiperspirant and deodorant compositions comprising malodor reduction compositions” (The Procter & Gamble Company, priority 2014, dated 2022)

Experiment: Blocker Index (BI), expert grader ranking of malodor strength of isovaleric acid swatch treated with test material
Protocol: Making Swatches Treated with the Test Material A clean swatch is treated with 13 μL of a known concentration of a test sample material resulting in an about 1 cm of the solution on the clean swatch. Just like the reference swatches, the test sample material swatch is dried in a vented hood for 30 minutes and then wrapped in aluminum foil to prevent contamination. The test material swatches and the FFI reference swatches should be made within 2 hrs of each other. The test material swatch must be used within 0.5 to 12 hours and discarded after 12 hours. Assigning the FFI to the Test Material At least two perfumers/expert graders are used to assign an FFI grade to a test sample. The perfumer/expert grader smells the test sample swatch by holding that swatch 1 inch from their nose with their nose centered over the area where the test sample was pipetted on to the fabric and then assigns the test sample an FFI grade using the FFI reference scale anchor swatches as references. In cases where the test sample material is graded greater than 3, the test material is not a blocker material or the concentration of the material needs to be lowered and reevaluated to determine if a lower level has a malodor blocker functionality. Method for Assigning the BI to Test Sample The first step in the method for assigning a BI to a test sample material on the BI reference scale is to create the BI reference swatches. […] Fabric swatches for this test are white knit polycotton (4 inch×4 inch) swatches from EMC ordered as PC 50/50. The supplier is instructed to strip the swatches first, stripping involves washing twice with a fragrance-free detergent and rinsing three times. […] The BI scale contains one clean swatch with no malodor applied. […] These solutions are pipetted to the middle of the swatches. […] After drying for 30 minutes in a vented hood, the swatches are wrapped in aluminum foil to prevent odor contamination to the treated swatch. A clean untreated swatch is also included as the lowest anchor point of reference for malodor strength on the BI scale. The BI reference scale swatches should be used within 0.5 to 12 hours and discarded after 12 hours. The swatches are used as scale anchor points when graders evaluate a test sample(s) and are assigned a Blocker Index (BI) as show in Table 12. […] The perfumer/expert grader is asked to rank order swatches according to a scale between 0 and 3.
The reference swatches represent the 0, 1, 2, and 3 BIs on the BI reference scale, Table 12. The expert grader should familiarizes him/herself with the strength of the odor on the BI reference swatches by sniffing each one starting at 0 (the lowest odor strength) and ending at 3 (the highest odor strength). This should be done prior to evaluating the swatch treated with the test material.
Making the Malodorous Swatch and Treating it with a Test Material To evaluate the BI, the test material is applied to a malodorous swatch to determine how well the test material blocks the malodor. […] After drying the malodorous swatch a known concentration of test material solution, between 1 ppm and 100 ppm is pipetted onto the malodorous swatch. […] It is sometimes necessary to evaluate several levels of the test material between about 1 and about 100 ppm to determine the BI. Assigning the BI to the Test Material At least two perfumers/expert graders are used to assign the BI to the test sample. […] The test sample swatch is assigned a BI at or between numbers on the BI in table.

[1] = test material at 10 ppm on isovaleric acid swatch
[2] = test material at 50 ppm on isovaleric acid swatch
[3] = test material Conc 50 ppm on swatch with 20 μL 0.08% isovaleric acid, scale 0 to 3
[4] = test material Conc 10 ppm on swatch with 20 μL 0.08% isovaleric acid, scale 0 to 3

| SMILES | BI [1] | BI [2] | BI [3] | BI [4] |
| --- | --- | --- | --- | --- |
| CC1(C)CCc2ccc(CCC=O)cc21 | 1.5 | 2.7 |  |  |
| CCCCCCCCCCCO [Undecanol] |  |  | 2.3 |  |
| CC(C)(C)C1CCCCC1 [4-tert-butyl cyclohexane] |  |  | 2.0 | 2.0 |
| CC(=O)OCCCCCCC(C)C [Material 204] |  |  | 2.7 | 2.0 |
| CCC(O)COC1CCCCC1C(C)(C)C (stereo not shown) [Material 677] |  |  | 2.0 | 2.3 |
| C=CC(C)=CCC=C(C)C [Material 524] |  |  | 2.8 |  |
| CC1(C)C2CCC3(C2)C1C(=O)CCC3(C)C (stereo not shown) [Material 1149] |  |  | 2.3 | 1.5 |
| CCCCCCCCCCCC(=O)OCC [Material 391] |  |  | 2.2 |  |
| CC(=O)OC1CC2CC1C1CC=CC21 (stereo not shown) [Material 281] |  |  | 2.0 | 2.0 |
| CCCCCCCCCCCCO [Material 174] |  |  | 2.3 |  |
| C=C1CCC2OC2(C)CCC2C1CC2(C)C (stereo not shown) [Material 1148] |  |  | 2.3 |  |
| CCC(=O)OC1CC2C3C=CCC3C1C2(C)C (stereo not shown) | 1.5 | 2.2 |  |  |
| O=C1CCC2CCCCC2O1 (stereo not shown) [3,4,4a,5,6,7,8,8a-octahydrochromen-2-one] |  |  | 2.0 | 2.0 |
| CC(CCO)CCc1ccccc1 (stereo not shown) [Material 962] |  |  | 1.7 | 2.3 |
| COC(=O)OC1CC/C=C\CCC1 (stereo not shown) [Material 1139] |  |  | 2.7 | 2.0 |
| CCOC(=O)OC1C(C)CCC(C)C1C (stereo not shown) [Material 1005] |  |  | 2.6 |  |
| CCCCCCCCCCCCCCCC(=O)OC [Material 109] |  |  |  | 2.0 |
| CC1(C)CCc2ccc(CCC=O)cc21 [Material 261] |  |  | 1.3 | 1.8 |
| CC1CCC2(C(C)C)CC(C)OC2C1 (stereo not shown) | 2.0 | 2.2 |  |  |
